From patent US5741782A, “Antibiotic cocktail and method of use” (Cryolife, Inc., priority 1996, dated 1998)
“And” between values parts separate entries of the source, which are not always exact repeats. Identical values can stand only once. Like-named read-outs stand apart in the source and are kept apart here.

Key:
[1] = tested on: valve leaflet fibroblasts; settings: for AVG incorporation of 3H-glycine: Example 10; for percent of control: Example 2
Protocol: (§1) Preferably, however, the tissue is incubated with a radioactively-labeled amino acid, and the incorporation of the amino acid into proteins is monitored by counting disintegrations per minute (DPM) per unit of tissue.
(§2) All of the valve leaflet halves were incubated for 48 hours at 37° C. in the antibiotic cocktails and then cryopreserved.
(§3) Experiment #2: Paired halves of leaflets were again used. One half was used as a fresh control and immediately labelled with ^3 H-glycine to determine leaflet fibroblast viability (see below). […] The antibiotic-treated leaflets were incubated for 48 hours at 37° C. in the antibiotic cocktails and then cryopreserved.
(§4) A 1.8 ml Nalge cryovial was used to contain the leaflet tissue. The freezing program takes the tissue from +4° to -80° C. in approx 80 to 90 minutes.
(§5) The valve leaflet halves were stored in liquid nitrogen freezer for at least two days, but no more than three weeks, before being thawed.
(§6) The valve leaflet halves were thawed by removing the valve tissue to be thawed from the liquid nitrogen freezer. As quickly as possible, the tissue was transferred to a 37° C. waterbath. When all of the ice had dissolved (about 2 minutes), the cryovial was transferred to a hood, and 4 ml of room temperature lactated Ringers plus 5% dextrose (DBLR) was dispensed into a 5-ml snap-cap tube (Falcon) for each cryovial being thawed. The exterior of the cryovial was rinsed with 70% isopropanol and any excess wiped away before opening. Using sterile forceps, the leaflet tissue was transferred into the tube containing the DBLR. The tissue was allowed to remain in D5LR for 5 minutes.
(§7) Tissue viability was assessed by the measurement of ^3 H-glycine incorporation into proteins as follows. The thawed valve leaflet halves were placed in snap-cap tubes (Falcon) containing 16 μCi of tritiated-glycine (DuPont New England Nuclear) in 1 ml of DMEM supplemented with 15 μg/ml ascorbic acid. Radiolabeled glycine incorporation was determined after a 48 hour incubation at 37° C. in an atmosphere consisting of 5% carbon dioxide in air. The tissue was then washed four times with phosphate-buffered saline, dehydrated with ethanol and ether, air dried and weighed. The tissue samples were then rehydrated with 200 μl of water and solubilized by the addition of 500 μl of 1M NaOH. After incubation at 60° C. for 1 hour, the samples were sonicated twice for 20-seconds. […] The filter discs were dried, and the proteins precipitated by addition of ice-cold 10% trichloroacetic acid for 30 minutes. This was followed by five ethanol rinses, two ether rinses, and drying. The discs were then placed in 10 ml of scintillation fluid (Cytoscint ES, ICN Biomedicals, Inc., Irvine, Calif.). Tritium incorporation was measured by scintillation counting using a LS1701 (Beckman Instruments, Inc., Palo Alto, Calif.).
(§8) The incorporation of ^3 H-glycine into proteins is expressed in disintegrations per minute (DPM) per mg of dry tissue.

[2] = tested on: cells responsible for allograft longevity in patients; settings: literature: Hu et al., Lange and Hopkins, McNally and Brockbank; cited from earlier work
yeast isolates = assay: yeast challenge of antibiotic cocktails, overall; format: cell-based; settings: for fungicidal activity (in words): Example 16, ten donor tissue isolates, 24 hours; for antiyeast activity at doses which maintain tissue viability (in words): summary of Examples 14 and 15
Text: The ten yeast isolates tested were:

[3] = tested on: Candida albicans ATCC strain 14053; assay: survival of Candida albicans in antifungal cocktails (membrane filtration enumeration); format: cell-based; settings: Example 14; for fungicidal activity (in words): Tube B, fluconazole 100 μg/ml, amphotericin B 0.6 μg/ml, or fluconazole 100 + amphotericin B 0.3 μg/ml; for surviving yeast, Tube B: Tube B (734 CFU/ml at time zero), 35° C.
Protocol: The Candida albicans used in these studies was ATCC strain 14053 (American Type Culture Collection). The purity of the strain was verified before and after cultivation.
The test organism was cultured on a Sabouraud Agar Plate, streaked for isolation, and incubated at 35° C. for 24 hours. A single colony was removed using a sterile cotton swab and placed in 5.0 ml of sterile saline. The mixture was vortexed, and dilutions were made and compared to a standard turbidity chart until the turbidity matched a 0.5 turbidity standard (a 0.5 MacFarland turbidity standard suspension). Serial dilutions were made as follows: (1) 0.5 ml of the 0.5 MacFarland turbidity standard was added to 4.5 ml of sterile normal saline (Tube A; expected population 10^5 cfu/ml); (2) 0.1 ml of the Tube A suspension was added to 9.9 ml of sterile normal saline (Tube B; expected population 10^3 cfu/ml); and (3) 0.1 ml of the Tube B suspension was added to 9.9 ml of sterile normal saline (Tube C; expected population 10 cfu/ml). Each serial dilution was vortexed for 30 seconds before the next transfer.
Tubes B and C were challenged with these cocktails. Each cocktail (24.0 ml) was placed into a sterile 115 ml plastic cup, and 1.0 ml of the yeast population from Tube B or C was added. The cups were mixed gently, capped and placed in the incubator for 24 hours at 35° C. After the prescribed incubation period, 1.0 ml of the yeast-cocktail mixture was removed from each tube and processed to obtain an enumeration of the surviving yeast organisms. The remaining mixture was placed back into the incubator and incubated for an additional 24 hours. After this incubation period, the cups were removed, swirled gently and 1.0 ml was removed, and the above process was repeated.
Enumeration of the yeast was performed as follows; each sample was tested in duplicate, One milliliter (1.0 ml) of year suspension was added to the top assembly of a sterile disposable filter apparatus which contained 99 ml of sterile normal saline. The contents were mixed gently and filtered. The filter pad was removed aseptically using sterile disposable forceps and placed on Sabouraud Agar plates. The plates were incubated at 35° C. for 24 hours, and the colonies were then counted.

in vitro = settings: human, heart valve leaflets, AVG % CONTRL, Example 3
Protocol: as §1, §2, §3, §4, §5, §6, §7, §8

bacteria = settings: general statement; cited from earlier work
[4] = tested on: valve leaflet fibroblasts; assay: cells; settings: Homo sapiens, Fibroblast, read-out: AVG percent of control, Example 2
Protocol: as §1, §2, §3, §4, §5, §6, §7, §8

Q: With `C[C@@H]1[C@H](O)[C@@H](C)/C=C/C=C/C=C/C=C/C=C/C=C/C=C/[C@H](O[C@@H]2O[C@H](C)[C@@H](O)[C@H](N)[C@@H]2O)C[C@@H]2O[C@](O)(C[C@@H](O)C[C@@H](O)[C@H](O)CC[C@@H](O)C[C@@H](O)CC(=O)O[C@H]1C)C[C@H](O)[C@H]2C(=O)O` [Amphotericin B, amphotericin B] as the compound, how does the “average viability (in words)” value ([1]; Example 5, 0.3 μg/ml amphotericin B in the antibiotic mixture) read?
A: average viability greater than the control

Q: What about the “MEAN incorporation of 3H-glycine” value ([1]; Example 11, 0.3 μg/ml amphotericin B, 24 hours) of the same compound?
A: 4965 DPM/mg

Q: What about the “MEAN incorporation of 3H-glycine” value ([1]; Example 11, 0.6 μg/ml amphotericin B, 24 hours) of the same compound?
A: 4960 DPM/mg

Q: What about the “MEAN incorporation of 3H-glycine” value ([1]; Example 11, 1.0 μg/ml amphotericin B, 24 hours) of the same compound?
A: 4914 DPM/mg

Q: What about the “MEAN incorporation of 3H-glycine” value ([1]; Example 11, 2.0 μg/ml amphotericin B, 24 hours) of the same compound?
A: 4236 DPM/mg

Q: What about the “MEAN incorporation of 3H-glycine” value ([1]; Example 11, 3.0 μg/ml amphotericin B, 24 hours) of the same compound?
A: 4452 DPM/mg

Q: What about the “toxicity (in words)” value [2] of the same compound?
A: toxic to the cells responsible for allograft longevity in patients

Q: What about the “fungicidal activity (in words)” value (yeast isolates) of the same compound?
A: shows greater fungicidal activity

Q: What about the “antiyeast activity at doses which maintain tissue viability (in words)” value (yeast isolates) of the same compound?
A: Neither amphotericin B, nor fluconazole, alone substantially inhibits yeast growth at doses which substantially maintain tissue viability

Q: And the “fungicidal activity (in words)” value [3]?
A: fungicidal

Q: Which “viability after treatment (in words)” value ([1]; Example 1, 100 μg/ml fluconazole added) does the source give for `OC(Cn1cncn1)(Cn1cncn1)c1ccc(F)cc1F` [Fluconazole, fluconazole] here?
A: not harmful to the tissue

Q: And the “fungicidal activity (in words)” value (yeast isolates)?
A: did not affect the fungicidal activity greatly

Q: What about the “antiyeast activity at doses which maintain tissue viability (in words)” value (yeast isolates) of the same compound?
A: Neither amphotericin B, nor fluconazole, alone substantially inhibits yeast growth at doses which substantially maintain tissue viability

Q: And the “surviving yeast, Tube B” value ([3]; 24 hr)?
A: 31 colonies

Q: And the “surviving yeast, Tube B” value ([3]; 48 hr)?
A: 45 colonies

Q: And the “fungicidal activity (in words)” value [3]?
A: suggests a tolerance or static phenomenon

Q: For `C[C@@H](O)[C@H]1C(=O)N2C(C(=O)O)=C(SCCN=CN)C[C@H]12` [Imipenem, imipenem], which “MEAN incorporation of 3H-glycine” value ([1]; Example 8, 48 μg/ml imipenem, 24 h) is on record?
A: 5269 DPM/mg

Q: And the “MEAN incorporation of 3H-glycine” value ([1]; Example 8, 48 μg/ml imipenem, 48 h)?
A: 5316 DPM/mg

Q: What about the “MEAN incorporation of 3H-glycine” value ([1]; Example 8, 72 μg/ml imipenem, 24 h) of the same compound?
A: 6897 DPM/mg

Q: And the “MEAN incorporation of 3H-glycine” value ([1]; Example 8, 72 μg/ml imipenem, 48 h)?
A: 7198 DPM/mg

Q: And the “MEAN incorporation of 3H-glycine” value ([1]; Example 8, 96 μg/ml imipenem, 24 h)?
A: 5885 DPM/mg

Q: What about the “MEAN incorporation of 3H-glycine” value ([1]; Example 8, 96 μg/ml imipenem, 48 h) of the same compound?
A: 6526 DPM/mg

Q: And the viability (in vitro; 12 μg/ml imipenem + rifampin 10 μg/ml)?
A: 86%

Q: What about the viability (in vitro; 24 μg/ml imipenem + rifampin 10 μg/ml) of the same compound?
A: 90%

Q: And the viability (in vitro; 48 μg/ml imipenem + rifampin 10 μg/ml)?
A: 104%

Q: What about the “antibacterial activity (in words)” value (bacteria) of the same compound?
A: active against most aerobic gram-positive and gram-negative bacteria and most anaerobic gram-positive and gram-negative bacteria

Q: With `CCN[C@@H]1C[C@H](N)[C@@H](O[C@H]2OC(CN)=CC[C@H]2N)[C@H](O)[C@H]1O[C@H]1OC[C@](C)(O)[C@H](NC)[C@H]1O` [Netilmicin, netilmicin] as the compound, how does the “AVG incorporation of 3H-glycine” value ([1]; 20 μg/ml netilmicin, 24 hours) read?
A: 4213 DPM/mg

Q: And the “AVG incorporation of 3H-glycine” value ([1]; 30 μg/ml netilmicin, 24 hours)?
A: 6805 DPM/mg

Q: And the “AVG incorporation of 3H-glycine” value ([1]; 50 μg/ml netilmicin, 24 hours)?
A: 5815 DPM/mg

Q: What about the “fungicidal activity (in words)” value (yeast isolates) of the same compound?
A: did not have any adverse effects on the fungicidal activity of fluoconazole and amphotericin B

Q: And the “antibacterial activity (in words)” value (bacteria)?
A: effective against many aerobic gram-negative bacteria and some aerobic gram-positive bacteria

Q: What about the “lack of antibacterial activity (in words)” value (bacteria) of the same compound?
A: inactive against most streptococci and most anaerobic bacteria

Q: Which results are given for `CO[C@H]1/C=C/O[C@@]2(C)Oc3c(C)c(O)c4c(O)c(c(/C=N/N5CCN(C)CC5)c(O)c4c3C2=O)NC(=O)/C(C)=C\C=C\[C@H](C)[C@H](O)[C@@H](C)[C@@H](O)[C@@H](C)[C@H](OC(C)=O)[C@@H]1C` [Rifampin, rifampin]?
A: percent of control ([1]; 10 μg/ml rifampin): 96% and 110% and 91% and 75% and 73% and 114%; percent of control ([1]; 30 μg/ml rifampin): 94%; activity at 10 µg/mL ([4]; 10 μg/ml rifampin): 93%; activity at 30 µg/mL ([4]; 30 μg/ml rifampin): 80%; activity at 100 µg/mL ([4]; 100 μg/ml rifampin): 42%

Q: For `CN[C@H](CC(C)C)C(=O)N[C@H]1C(=O)N[C@@H](CC(N)=O)C(=O)N[C@H]2C(=O)N[C@H]3C(=O)N[C@H](C(=O)N[C@H](C(=O)O)c4cc(O)cc(O)c4-c4cc3ccc4O)[C@H](O)c3ccc(c(Cl)c3)Oc3cc2cc(c3O[C@@H]2O[C@H](CO)[C@@H](O)[C@H](O)[C@H]2O[C@H]2C[C@](C)(N)[C@H](O)[C@H](C)O2)Oc2ccc(cc2Cl)[C@H]1O` [Vancomycin, vancomycin], which “antibacterial activity (in words)” value (bacteria) is on record?
A: active against many gram-positive organisms, including staphylococci, streptococci, enterococci, Clostridium and Corynebacterium

Q: What about the “lack of antibacterial activity (in words)” value (bacteria) of the same compound?
A: inactive against gram-negative bacteria
